pIC50: −log10 of the molar value.
Experiments:
human orexin receptor 1 = human orexin receptor 1 (Homo sapiens (Human), UniProt O43613); assay: Orexin antagonist activity, intracellular calcium FLIPR assay, RBL-2H3 cells expressing human orexin receptor 1; format: cell-based; conditions: RBL-2H3 cells stably expressing human orexin receptor 1; orexin-A at approx. 80% maximal response; compound added 15 minutes before; read-out: Human Orexin1R IC50
human orexin receptor 2 = human orexin receptor 2 (Homo sapiens (Human), UniProt O43614); assay: Orexin antagonist activity, intracellular calcium FLIPR assay, RBL-2H3 cells expressing human orexin receptor 2; format: cell-based; conditions: RBL-2H3 cells stably expressing human orexin receptor 2; orexin-A at approx. 80% maximal response; compound added 15 minutes before; read-out: Human Orexin2R IC50
human orexin receptor 2, sequence (O43614 whole entry): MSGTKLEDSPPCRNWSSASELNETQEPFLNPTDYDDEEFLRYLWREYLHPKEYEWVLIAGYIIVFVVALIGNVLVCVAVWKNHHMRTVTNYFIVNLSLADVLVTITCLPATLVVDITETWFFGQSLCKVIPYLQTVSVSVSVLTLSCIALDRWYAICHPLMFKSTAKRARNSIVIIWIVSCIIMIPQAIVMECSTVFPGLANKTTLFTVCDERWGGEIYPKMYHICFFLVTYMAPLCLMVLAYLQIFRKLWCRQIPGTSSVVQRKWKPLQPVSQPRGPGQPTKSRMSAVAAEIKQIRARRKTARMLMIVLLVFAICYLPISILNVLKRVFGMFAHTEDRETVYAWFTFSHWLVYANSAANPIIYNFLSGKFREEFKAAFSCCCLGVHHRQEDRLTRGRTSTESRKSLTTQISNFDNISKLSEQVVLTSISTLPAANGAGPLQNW

human orexin receptor 1, sequence (O43613 whole entry): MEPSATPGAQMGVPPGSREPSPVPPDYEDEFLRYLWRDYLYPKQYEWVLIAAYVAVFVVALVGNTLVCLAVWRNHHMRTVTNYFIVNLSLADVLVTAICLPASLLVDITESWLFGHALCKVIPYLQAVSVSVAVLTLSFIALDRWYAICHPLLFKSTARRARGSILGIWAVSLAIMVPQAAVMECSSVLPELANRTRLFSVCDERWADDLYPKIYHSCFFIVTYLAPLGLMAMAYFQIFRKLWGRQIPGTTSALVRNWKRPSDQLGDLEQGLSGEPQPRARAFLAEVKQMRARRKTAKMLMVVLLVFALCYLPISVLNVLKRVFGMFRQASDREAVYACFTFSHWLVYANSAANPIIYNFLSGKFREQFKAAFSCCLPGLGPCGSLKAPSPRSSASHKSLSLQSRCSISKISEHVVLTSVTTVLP

## O=C(N[C@H]1CCC[C@@H]1Nc1ccc(C(F)(F)F)cn1)c1ccccc1-n1nccn1 [Example 12, 2-(2H-1,2,3-Triazol-2-yl)-N-[(1S,2S)-2-{[5-(trifluoromethyl)pyridin-2-yl]amino}cyclopentyl]benzamide]
Human orexin receptor 1
  pIC50: 7.19
Human orexin receptor 2
  pIC50: < 5.00

## O=C(N[C@H]1CCC[C@@H]1Nc1ncc(C(F)(F)F)cc1Cl)c1ccccc1-n1nccn1 [Example 106, N-[(1S,2S)-2-{[3-Chloro-5-(trifluoromethyl)pyridin-2-yl]amino}cyclopentyl]-2-(2H-1,2,3-triazol-2-yl)benzamide]
Human orexin receptor 1
  pIC50: 7.54
Human orexin receptor 2
  pIC50: < 5.00

## O=C(N[C@H]1CCC[C@@H]1Nc1ncc(C(F)(F)F)cc1Cl)c1ncccc1-c1ncccn1 [Example 148, N-[(1S,2S)-2-{[3-Chloro-5-(trifluoromethyl)pyridin-2-yl]amino}cyclopentyl]-3-(pyrimidin-2-yl)pyridine-2-carboxamide]
Human orexin receptor 1
  pIC50: 7.72
Human orexin receptor 2
  pIC50: < 5.00

## O=C(N[C@H]1CC(F)(F)C[C@@H]1Nc1ncc(C(F)(F)F)cc1F)c1ccccc1-n1nccn1 [Example 132, N-[(1S,2S)-4,4-Difluoro-2-{[3-fluoro-5-(trifluoromethyl)pyridin-2-yl]amino}cyclopentyl]-2-(2H-1,2,3-triazol-2-yl)benzamide]
Human orexin receptor 1
  pIC50: 7.92
Human orexin receptor 2
  pIC50: < 5.00

## O=C(N[C@H]1CCC[C@@H]1Nc1ncc(C(F)(F)F)cc1F)c1cc(F)ccc1-c1ncccn1 [Example 139, 5-Fluoro-N-[(1S,2S)-2-{[3-fluoro-5-(trifluoromethyl)pyridin-2-yl]amino}cyclopentyl]-2-(pyrimidin-2-yl)benzamide]
Human orexin receptor 1
  pIC50: 7.49
Human orexin receptor 2
  pIC50: < 5.00

## O=C(N[C@H]1CCC[C@@H]1Nc1ccc(C(F)(F)F)cn1)c1cc(F)ccc1-n1nccn1 [Example 10, 5-Fluoro-2-(2H-1,2,3-triazol-2-yl)-N-[(1S,2S)-2-{[5-(trifluoromethyl)pyridin-2-yl]amino}cyclopentyl]benzamide]
Human orexin receptor 1
  pIC50: 7.23
Human orexin receptor 2
  pIC50: < 5.00

## O=C(N[C@H]1CCC[C@@H]1Nc1cnc(C2CC2)cn1)c1ccccc1-n1nccn1 [Example 112, N-[(1S,2S)-2-[(5-Cyclopropylpyrazin-2-yl)amino]cyclopentyl]-2-(2H-1,2,3-triazol-2-yl)benzamide]
Human orexin receptor 1
  pIC50: 6.32
Human orexin receptor 2
  pIC50: < 5.00

## O=C(N[C@H]1CCC[C@@H]1Nc1ccc(C(F)(F)F)cn1)c1ccccc1-n1cccn1 [Example 11, 2-(1H-Pyrazol-1-yl)-N-[(1S,2S)-2-{[5-(trifluoromethyl)pyridin-2-yl]amino}cyclopentyl]benzamide]
Human orexin receptor 1
  pIC50: 6.77
Human orexin receptor 2
  pIC50: < 5.00

## COc1cccc(-n2cccn2)c1C(=O)N[C@H]1CCC[C@@H]1Nc1cnc(C(F)(F)F)cn1 [Example 50, 2-Methoxy-6-(1H-pyrazol-1-yl)-N-[(1S,2S)-2-{[5-(trifluoromethyl)pyrazin-2-yl]amino}cyclopentyl]benzamide]
Human orexin receptor 1
  pIC50: 7.10
Human orexin receptor 2
  pIC50: < 5.00

## C[C@]1(Nc2cnc(C(F)(F)F)cn2)CCC[C@@H]1NC(=O)c1ncccc1C1CC1 [Example 89, 3-Cyclopropyl-N-[(1S,2S)-2-methyl-2-{[5-(trifluoromethyl)pyrazin-2-yl]amino}cyclopentyl]pyridine-2-carboxamide]
Human orexin receptor 1
  pIC50: 6.85
Human orexin receptor 2
  pIC50: < 5.00

## Cc1ccc(-n2ccnn2)c(C(=O)N[C@H]2CCC[C@@H]2Nc2cnc(C(F)(F)F)cn2)c1 [Example 42, 5-Methyl-2-(1H-1,2,3-triazol-1-yl)-N-[(1S,2S)-2-{[5-(trifluoromethyl)pyrazin-2-yl]amino}cyclopentyl]benzamide]
Human orexin receptor 1
  pIC50: 6.58
Human orexin receptor 2
  pIC50: < 5.00

## O=C(N[C@H]1CCC[C@@H]1Nc1cnc(C(F)(F)F)cn1)c1c(F)ccc(F)c1-n1nccn1 [Example 64, 3,6-Difluoro-2-(2H-1,2,3-triazol-2-yl)-N-[(1S,2S)-2-{[5-(trifluoromethyl)pyrazin-2-yl]amino}cyclopentyl]benzamide]
Human orexin receptor 1
  pIC50: 7.24
Human orexin receptor 2
  pIC50: < 5.00

## O=C(N[C@H]1CCC[C@@H]1Nc1ccc(C(F)(F)F)cn1)c1ccccc1-c1ncccn1 [Example 13, 2-(Pyrimidin-2-yl)-N-[(1S,2S)-2-{[5-(trifluoromethyl)pyridin-2-yl]amino}cyclopentyl]benzamide]
Human orexin receptor 1
  pIC50: 7.00
Human orexin receptor 2
  pIC50: < 5.00

## Cc1ccc(-n2nccn2)c(C(=O)NC2CCCC2Cc2ccc(C(F)(F)F)cn2)c1 (stereo not shown) [Example 26, 5-Methyl-2-(2H-1,2,3-triazol-2-yl)-N-(2-{[5-(trifluoromethyl)pyridin-2-yl]methyl}cyclopentyl)benzamide]
Human orexin receptor 1
  pIC50: 6.21
Human orexin receptor 2
  pIC50: < 5.00

## O=C(NC1CC(F)(F)CC1Nc1ncc(C(F)(F)F)cn1)c1ccccc1-n1nccn1 (single isomer, unassigned) [Example 127, N-(4,4-Difluoro-2-{[5-(trifluoromethyl)pyrimidin-2-yl]amino}cyclopentyl)-2-(2H-1,2,3-triazol-2-yl)benzamide]
Human orexin receptor 1
  pIC50: 7.17
Human orexin receptor 2
  pIC50: < 5.00

## C[C@]1(Nc2cnc(C(F)(F)F)cn2)CCC[C@@H]1NC(=O)c1cc(F)ccc1-n1nccn1 [Example 84, 5-Fluoro-N-[(1S,2S)-2-methyl-2-{[5-(trifluoromethyl)pyrazin-2-yl]amino}cyclopentyl]-2-(2H-1,2,3-triazol-2-yl)benzamide]
Human orexin receptor 1
  pIC50: 7.66
Human orexin receptor 2
  pIC50: < 5.00

## C[C@]1(Nc2cnc(C(F)(F)F)cn2)CCC[C@@H]1NC(=O)c1ccccc1-c1ncccn1 [Example 91, N-[(1S,2S)-2-Methyl-2-{[5-(trifluoromethyl)pyrazin-2-yl]amino}cyclopentyl]-2-(pyrimidin-2-yl)benzamide]
Human orexin receptor 1
  pIC50: 8.22
Human orexin receptor 2
  pIC50: < 5.00

## O=C(N[C@H]1CCC[C@@H]1Nc1ccc(C(F)(F)F)cn1)c1ccccc1Cl [Example 69, 2-Chloro-N-[(1S,2S)-2-{[5-(trifluoromethyl)pyridin-2-yl]amino}cyclopentyl]benzamide]
Human orexin receptor 1
  pIC50: 6.49
Human orexin receptor 2
  pIC50: < 5.00

## O=C(NC1CC(F)(F)CC1Nc1cnc(C(F)(F)F)cn1)c1ccccc1-n1nccn1 (stereo not shown) [Example 126, N-(4,4-Difluoro-2-{[5-(trifluoromethyl)pyrazin-2-yl]amino}cyclopentyl)-2-(2H-1,2,3-triazol-2-yl)benzamide]
Human orexin receptor 1
  pIC50: 6.92
Human orexin receptor 2
  pIC50: < 5.00

## O=C(N[C@H]1CCC[C@@H]1Nc1cnc(C(F)(F)F)cn1)c1ncccc1-n1cccn1 [Example 43, 3-(1H-Pyrazol-1-yl)-N-[(1S,2S)-2-{[5-(trifluoromethyl)pyrazin-2-yl]amino}cyclopentyl]pyridine-2-carboxamide]
Human orexin receptor 1
  pIC50: 6.54
Human orexin receptor 2
  pIC50: < 5.00

## Cc1noc(-c2ccccc2C(=O)N[C@H]2CCC[C@@H]2Nc2ccc(C(F)(F)F)cn2)n1 [Example 8, 2-(3-Methyl-1,2,4-oxadiazol-5-yl)-N-[(1S,2S)-2-{[5-(trifluoromethyl)pyridin-2-yl]amino}cyclopentyl]benzamide]
Human orexin receptor 1
  pIC50: 6.96
Human orexin receptor 2
  pIC50: < 5.00

## O=C(N[C@H]1CCC[C@@H]1Nc1cnc(C(F)(F)F)cn1)c1c(F)cccc1-n1cccn1 [Example 46, 2-Fluoro-6-(1H-pyrazol-1-yl)-N-[(1S,2S)-2-{[5-(trifluoromethyl)pyrazin-2-yl]amino}cyclopentyl]benzamide]
Human orexin receptor 1
  pIC50: 6.76
Human orexin receptor 2
  pIC50: < 5.00

## CCOc1cccnc1C(=O)N[C@H]1CCC[C@]1(C)Nc1cnc(C(F)(F)F)cn1 [Example 86, 3-Ethoxy-N-[(1S,2S)-2-methyl-2-{[5-(trifluoromethyl)pyrazin-2-yl]amino}cyclopentyl]pyridine-2-carboxamide]
Human orexin receptor 1
  pIC50: 6.89
Human orexin receptor 2
  pIC50: < 5.00

Reference: patent US9156829B2, “Cycloalkyl and heterocycloalkyl compounds as orexin receptor antagonists” (Takeda Pharmaceutical Company Limited, priority 2014, dated 2015)
